Data taken from ChEMBL document CHEMBL3638448, “8-[3-amino-piperidin-1-yl]-xanthines, their preparation and their use as pharmaceutical compositions” (2014).

Biological target: Dipeptidyl peptidase 4 (Homo sapiens, UniProt P27487)
Assay: Biological Assay: 50 μl of substrate solution (AFC; AFC is amido-4-trifluoromethylcoumarin), final concentration 100 μM, was placed in black microtitre plates. 20 μl of assay buffer (final concentrations 50 mM Tris HCl pH 7.8, 50 mM NaCl, 1% DMSO) was pipetted therein. The reaction was started by the addition of 30 μl of solubilized Caco-2 protein (final concentration 0.14 μg of protein per well). The test substances under investigation were typically added prediluted to 20 μl, while the volume of assay buffer was then reduced accordingly. The reaction was carried out at ambient temperature, the incubation period was 60 minutes. Then the fluorescence was measured in a Victor 1420 Multilabel Counter, with the excitation wavelength at 405 nm and the emission wavelength at 535 nm.

Sequence of Dipeptidyl peptidase 4 (P27487 whole entry): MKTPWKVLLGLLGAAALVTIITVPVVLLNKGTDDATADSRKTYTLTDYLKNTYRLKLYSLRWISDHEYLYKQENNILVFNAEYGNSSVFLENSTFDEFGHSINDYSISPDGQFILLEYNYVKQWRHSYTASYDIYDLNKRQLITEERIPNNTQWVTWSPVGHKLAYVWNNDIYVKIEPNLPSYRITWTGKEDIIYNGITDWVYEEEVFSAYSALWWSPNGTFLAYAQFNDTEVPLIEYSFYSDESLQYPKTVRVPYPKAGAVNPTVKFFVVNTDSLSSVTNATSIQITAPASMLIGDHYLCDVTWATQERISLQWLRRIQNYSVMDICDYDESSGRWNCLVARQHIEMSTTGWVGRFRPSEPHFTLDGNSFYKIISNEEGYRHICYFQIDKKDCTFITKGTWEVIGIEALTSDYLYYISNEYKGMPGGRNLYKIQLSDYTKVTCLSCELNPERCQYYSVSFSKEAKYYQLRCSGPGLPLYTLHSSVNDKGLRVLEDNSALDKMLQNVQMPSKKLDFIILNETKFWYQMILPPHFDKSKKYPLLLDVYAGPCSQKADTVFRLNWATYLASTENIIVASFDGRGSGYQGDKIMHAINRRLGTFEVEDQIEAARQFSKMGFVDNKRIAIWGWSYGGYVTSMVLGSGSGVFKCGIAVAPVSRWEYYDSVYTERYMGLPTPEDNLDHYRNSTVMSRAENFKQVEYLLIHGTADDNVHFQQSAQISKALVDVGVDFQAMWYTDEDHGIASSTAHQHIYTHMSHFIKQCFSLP

| SMILES | IC50 |
| --- | --- |
| CC#CCn1c(N2CCCC(NC(=O)OC(C)(C)C)C2)nc2c1c(=O)n(Cc1nc(NCc3ccccc3)c3ccccc3n1)c(=O)n2C (stereo not given) | 6 nM |
| CC#CCn1c(N2CCC[C@@H](NC(=O)OC(C)(C)C)C2)nc2c1c(=O)n(Cc1cc(C#N)cc3ccccc13)c(=O)n2C | 6 nM |
| CC#CCn1c(N2CCC[C@@H](NC(=O)OC(C)(C)C)C2)nc2c1c(=O)n(Cc1nc(-c3ccccc3)nc3ccccc13)c(=O)n2C | 9 nM |
| CC#CCn1c(N2CCC[C@@H](NC(=O)OC(C)(C)C)C2)nc2c1c(=O)n(CC(=O)c1cccc(OC3CC3)c1)c(=O)n2C | 5 nM |
| CC#CCn1c(N2CCC[C@@H](NC(=O)OC(C)(C)C)C2)nc2c1c(=O)n(Cc1nc3ccccc3c(C)c1C#N)c(=O)n2C | 2 nM |
| CC#CCn1c(N2CCC[C@@H](NC(=O)OC(C)(C)C)C2)nc2c1c(=O)n(Cc1nccc(-c3ccccc3)n1)c(=O)n2C | 2 nM |
| CC#CCn1c(N2CCC[C@@H](NC(=O)OC(C)(C)C)C2)nc2c1c(=O)n(CC(=O)c1ccccc1[N+](=O)[O-])c(=O)n2C | 3 nM |

Further lines, results first:

| IC50 | SMILES |
| --- | --- |
| 2 nM | CC#CCn1c(N2CCC[C@@H](NC(=O)OC(C)(C)C)C2)nc2c1c(=O)n(Cc1cc(C#N)c3ccccc3n1)c(=O)n2C |
| 2 nM | CC#CCn1c(N2CCC[C@@H](NC(=O)OC(C)(C)C)C2)nc2c1c(=O)n(Cc1ccc3nc(C)c(C)nc3c1)c(=O)n2C |
| 2 nM | CC#CCn1c(N2CCC[C@@H](NC(=O)OC(C)(C)C)C2)nc2c1c(=O)n(CC(=O)c1ccccc1Br)c(=O)n2C |
